Assay results taken from ChEMBL document CHEMBL1201862, “PubChem BioAssay data set” (2004).
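The compound was tested at five concentrations on cells cultured in 96-well plates, with a 48-hour exposure period. GI50 marks 50% less growth.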 Activity calls are given as the source filed them. Cut-off read from the data, not from the text of the source: active = GI50 up to about 1.1 µM and inactive = higher.

How the values were obtained:
Assay in all cases: DTP human tumour cell line panel, 48 h
[1] = test system: M19-MEL
[2] = test system: UACC-257
[3] = test system: DMS-114
[4] = test system: TK-10
[5] = test system: KM12
[6] = test system: SK-OV-3
[7] = test system: A549
[8] = test system: SK-MEL-2
[9] = test system: RPMI-8226
[10] = test system: CCRF-CEM
[11] = test system: MOLT-4
[12] = test system: HOP-92
[13] = test system: K562
[14] = test system: M14
[15] = test system: SNB-78
[16] = test system: HT-29
[17] = test system: RXF 393
[18] = test system: IGROV-1
[19] = test system: OVCAR-5
[20] = test system: SR
[21] = test system: OVCAR-8
[22] = test system: NCI-H226
[23] = test system: SNB-75
[24] = test system: SW-620
[25] = test system: SF-295
[26] = test system: HCT-116
[27] = test system: HCT-15
[28] = test system: HCC 2998
[29] = test system: HOP-62
[30] = test system: 786-0
[31] = test system: LXFL 529
[32] = test system: NCI-H23
[33] = test system: LOX IMVI
[34] = test system: SNB-19
[35] = test system: Malme-3M
[36] = test system: XF498
[37] = test system: OVCAR-4
[38] = test system: SK-MEL-28
[39] = test system: A498
[40] = test system: NCI-H460
[41] = test system: SF-539
[42] = test system: OVCAR-3
[43] = test system: SF-268
[44] = test system: UACC-62
[45] = test system: UO-31
[46] = test system: DMS-273
[47] = test system: DLD-1
[48] = test system: COLO 205
[49] = test system: HL-60
[50] = test system: ACHN
[51] = test system: SK-MEL-5
[52] = test system: U-251
[53] = test system: RXF 631
[54] = test system: NCI-H522
[55] = test system: SN12C
[56] = test system: CAKI-1
[57] = test system: KM-20L2
[58] = test system: EKVX

N#CCCn1c(S)nnc1CCC(=O)Nc1ccc(Cl)cc1Cl
GI50 [1]: > 100 µM (inactive) | GI50 [2]: > 100 µM (inactive) | GI50 [3]: > 100 µM (inactive) | GI50 [4]: > 100 µM (inactive) | GI50 [5]: > 100 µM (inactive) | GI50 [6]: > 100 µM (inactive) | GI50 [7]: 81.3 µM (inactive) | GI50 [8]: > 100 µM (inactive) | GI50 [9]: > 100 µM (inactive) | GI50 [10]: 52.6 µM (inactive) | GI50 [11]: > 100 µM (inactive) | GI50 [12]: > 100 µM (inactive) | GI50 [13]: 41.4 µM (inactive) | GI50 [14]: > 100 µM (inactive) | GI50 [15]: > 100 µM (inactive) | GI50 [16]: > 100 µM (inactive) | GI50 [17]: > 100 µM (inactive) | GI50 [18]: > 100 µM (inactive) | GI50 [19]: > 100 µM (inactive) | GI50 [20]: 21.7 µM (inactive) | GI50 [21]: > 100 µM (inactive) | GI50 [22]: > 100 µM (inactive) | GI50 [23]: > 100 µM (inactive) | GI50 [24]: > 100 µM (inactive) | GI50 [25]: > 100 µM (inactive) | GI50 [26]: > 100 µM (inactive) | GI50 [27]: > 100 µM | GI50 [28]: > 100 µM (inactive) | GI50 [29]: > 100 µM (inactive) | GI50 [30]: > 100 µM (inactive) | GI50 [31]: > 100 µM (inactive) | GI50 [32]: > 100 µM (inactive) | GI50 [33]: 71.6 µM (inactive) | GI50 [34]: > 100 µM (inactive) | GI50 [35]: > 100 µM (inactive) | GI50 [36]: > 100 µM (inactive) | GI50 [37]: > 100 µM (inactive) | GI50 [38]: > 100 µM (inactive) | GI50 [39]: > 100 µM (inactive) | GI50 [40]: > 100 µM (inactive) | GI50 [41]: > 100 µM (inactive) | GI50 [42]: > 100 µM (inactive) | GI50 [43]: > 100 µM (inactive) | GI50 [44]: > 100 µM (inactive) | GI50 [45]: > 100 µM (inactive) | GI50 [46]: > 100 µM (inactive) | GI50 [47]: > 100 µM (inactive) | GI50 [48]: > 100 µM (inactive) | GI50 [49]: 94.2 µM (inactive) | GI50 [50]: > 100 µM (inactive) | GI50 [51]: > 100 µM (inactive) | GI50 [52]: > 100 µM (inactive) | GI50 [53]: > 100 µM (inactive) | GI50 [54]: > 100 µM (inactive) | GI50 [55]: > 100 µM (inactive) | GI50 [56]: > 100 µM (inactive) | GI50 [57]: > 100 µM (inactive)

O=C(O)CSc1nnc(-c2ccco2)[nH]1
GI50 [1]: > 100 µM (inactive) | GI50 [2]: > 100 µM (inactive) | GI50 [4]: > 100 µM (inactive) | GI50 [5]: > 100 µM (inactive) | GI50 [6]: > 100 µM (inactive) | GI50 [7]: > 100 µM (inactive) | GI50 [8]: > 100 µM (inactive) | GI50 [9]: > 100 µM (inactive) | GI50 [10]: > 100 µM (inactive) | GI50 [11]: > 100 µM (inactive) | GI50 [12]: > 100 µM (inactive) | GI50 [13]: > 100 µM (inactive) | GI50 [14]: > 100 µM (inactive) | GI50 [15]: > 100 µM (inactive) | GI50 [16]: > 100 µM (inactive) | GI50 [17]: > 100 µM (inactive) | GI50 [18]: > 100 µM (inactive) | GI50 [19]: > 100 µM (inactive) | GI50 [21]: > 100 µM (inactive) | GI50 [22]: > 100 µM (inactive) | GI50 [23]: 95.5 µM (inactive) | GI50 [24]: > 100 µM (inactive) | GI50 [25]: > 100 µM (inactive) | GI50 [26]: > 100 µM (inactive) | GI50 [28]: > 100 µM (inactive) | GI50 [29]: > 100 µM (inactive) | GI50 [30]: > 100 µM (inactive) | GI50 [31]: > 100 µM (inactive) | GI50 [32]: > 100 µM (inactive) | GI50 [33]: > 100 µM (inactive) | GI50 [34]: > 100 µM (inactive) | GI50 [35]: > 100 µM (inactive) | GI50 [36]: > 100 µM (inactive) | GI50 [37]: > 100 µM (inactive) | GI50 [38]: > 100 µM (inactive) | GI50 [39]: > 100 µM (inactive) | GI50 [40]: > 100 µM (inactive) | GI50 [41]: > 100 µM (inactive) | GI50 [42]: > 100 µM (inactive) | GI50 [44]: > 100 µM (inactive) | GI50 [45]: > 100 µM (inactive) | GI50 [46]: > 100 µM (inactive) | GI50 [47]: > 100 µM (inactive) | GI50 [48]: > 100 µM (inactive) | GI50 [49]: > 100 µM (inactive) | GI50 [58]: > 100 µM (inactive) | GI50 [50]: > 100 µM (inactive) | GI50 [51]: > 100 µM (inactive) | GI50 [52]: > 100 µM (inactive) | GI50 [53]: > 100 µM (inactive) | GI50 [54]: > 100 µM (inactive) | GI50 [55]: > 100 µM (inactive) | GI50 [56]: > 100 µM (inactive) | GI50 [57]: > 100 µM (inactive)
